The source of these data is patent publication US5387610A, “Peptide derivatives of collagenase inhibitor” (Research Corporation Technologies, Inc., priority 1992, dated 1995).

As usually defined, the IC50 is the point on the concentration scale where inhibition reaches its midpoint.

Values joined by “and” are separate entries in the source; they are usually repeats but may differ in a detail not shown here. Identical values can stand only once.

One assay concerns the target T1, pig synovial collagenase (Sus scrofa, UniProt P21692).
T1 construct: purified porcine synovial collagenase; from tissue; host or cells: pig synovium (synovial enzyme, purified)
T1 sequence (P21692 100-469): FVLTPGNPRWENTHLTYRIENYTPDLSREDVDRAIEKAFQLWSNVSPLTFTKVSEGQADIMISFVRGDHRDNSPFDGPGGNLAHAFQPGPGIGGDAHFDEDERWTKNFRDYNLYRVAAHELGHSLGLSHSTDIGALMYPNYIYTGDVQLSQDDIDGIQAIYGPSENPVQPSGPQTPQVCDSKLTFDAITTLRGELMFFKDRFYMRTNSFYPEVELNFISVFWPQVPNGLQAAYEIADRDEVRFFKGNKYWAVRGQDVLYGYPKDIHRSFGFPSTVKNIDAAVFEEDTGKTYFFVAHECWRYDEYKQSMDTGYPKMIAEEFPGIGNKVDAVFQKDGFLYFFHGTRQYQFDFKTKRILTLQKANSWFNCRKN
The assay is described as follows: Pig synovial collagenase with fluorogenic substrate FS-7 (PSC/FS-7). The class given is biochemical. To be noted: substrate Dnp-Pro-Leu-Gly-Leu-Trp-Ala-D-Arg-NH2; successive lines per compound = diastereomers, higher C18 mobility first. The method, then:
[The source words this procedure for another target and reports this target under the same test.] Recombinant human fibroblast collagenase (rHFC) and porcine synovial gelatinase (PSG) were assayed at 37° C. by the procedure of Stack and Gray (1989). The fluorogenic metalloproteinase substrate Dnp-Pro-Leu-Gly-Leu-Trp-Ala-D-Arg-NH2 was dissolved at an initial concentration of 10 μM in 0.05M tris-HCl, 0.2M NaCl, 5 mM CaCl2, pH 7.7. Hydrolysis of the substrate at the Gly-Leu bond results in an increase in fluorescence that was monitored using an SLM-500C spectrofluorometer with excitation at 280 nm and emission at 346 nm. The reaction was initiated by addition of the enzyme; after determining the initial rate of substrate hydrolysis an aliquot of inhibitor was added and the inhibited rate redetermined. For lower affinity inhibitors (IC50>>[E0 ], where E0 is the enzyme concentration), inhibitor potencies were determined from plots of log (A0 /Ai-1) vs. log [Inhibitor], where A0 is the activity measured in the absence of inhibitor and Ai is that measured in the presence of inhibitor at concentration i (Ambrose et al., 1950). For high affinity inhibitors (IC50 =[E0 ]) only an upper limit of inhibitor potency could be estimated (Dixon and Webb, 1979).

The target of assay [1] is T2, Porcine synovial collagenase (Sus scrofa, UniProt P21692).
T2 construct: purified porcine synovial collagenase; from tissue; host or cells: pig synovium (synovial enzyme, purified)
T2 sequence (P21692 100-469): T1 sequence (P21692 100-469)
The assay is described as follows: Porcine synovial collagenase activity with type I (calf skin) collagen, gel densitometry (PSC/CSC). The note with it: acid-soluble calf skin collagen 0.8 μM, 35° C., pH 7.7; a range means 50% inhibition lay between the values; successive lines per compound = diastereomers, higher C18 mobility first. Format: biochemical. The method, then:
Porcine synovial collagenase activity (PSC) was measured with type I collagen essentially as described by Darlak et al. (1990). Varying amounts of inhibitor were added to the acid-soluble calf skin collagen (0.8 μM) at 35° C. in 0.05M tris-HCl, 0.2M NaCl, 5 mM CaCl2, 0.25M glucose, pH 7.7. Collagen degradation was initiated by adding purified porcine synovial collagenase and the reactions were stopped by the addition of an equal volume of sample dilution buffer (Laemmli, 1970) followed by boiling for 2-3 min. Undegraded collagen was resolved from its degradation products by polyacrylamide slab gel electrophoresis as described by Laemmli (1970). The gels were fixed in isopropanol/acetic acid/water (100:40:300 v/v) and then stained with 1% Coomassie Blue R-250 in fixing solution. After destaining, the percentage of α1 chain converted to the corresponding TC fragment was estimated by densitometry using a Bio-Rad model 610 video densitometer. IC50 values were estimated from the dependence of the percent of collagen degraded on inhibitor concentration.

“H4[ONHCO]--DL--Leu Trp--NH2 [Compound 2]”: the IC50 at pig synovial collagenase turned out to be 370 µM; in assay [1], 180 µM.

As for “H4[ONHCO]--DL--Leu Phe--NH2 [Compound 1]”, the half-maximal inhibitory concentration (IC50) on pig synovial collagenase came to 700 µM; in assay [1] it was 250 µM.

Turning to `CC(C)CC(C(=O)N[C@@H](Cc1ccccc1)C(=O)N[C@@H](C)C(N)=O)C(C)C(=O)NO` (single isomer, unassigned) [Compound 16, H4[ONHCOCH(CH3)]--DL--Leu Phe Ala--NH2], the half-maximal inhibitory concentration (IC50) in assay [1] was 1 µM and > 3 µM.

For “HO--NH--CO--CH2 --CH(CH2 CH(CH3)2 --CO--Nal--Pro--NH2 [Compound 12]”, the IC50 is 1.1 µM on pig synovial collagenase and 1 to 3 µM in assay [1].

For “H4[ONHCO]--DL--Leu Hal Ala--NH2 [Compound 5]”, the half-inhibitory concentration (IC50) against pig synovial collagenase was 21 µM; in assay [1], 25 to 30 µM.

Turning to “H4[ONHCO]--DL--Leu I'-Hal--NH2 [Compound 7]”, the concentration for half-maximal inhibition (IC50) on pig synovial collagenase is 280 µM; in assay [1], 300 to 500 µM.
